Experimental data as given in ChEMBL document CHEMBL4840313, “Bioisosteric replacements of the indole moiety for the development of a potent and selective PI3Kδ inhibitor: Design, synthesis and biological evaluation” (Eur J Med Chem, 2021).

Tests used:
HL-60 = assay: Antiproliferative activity against human HL-60 cells assessed as reduction in cell viability measured after 48 hrs by CCK8 assay; type: functional, cell-based; conditions: HL-60, 48 h
[1] = Induction of apoptosis in human MOLM16 cells assessed as late apoptotic cells at 5 uM incubated for 48 hrs by Annexin V and propidium iodide Staining based assay (reference value: 6.77 %); type: functional, MOLM-16
[2] = Induction of cell cycle arrest in human MOLM16 cells assessed as accumulation at G2 phase at 2 uM incubated for 24 hrs by propidium iodide /RNase staining based flow cytometry(Rvb =14.7 %); type: functional, MOLM-16
[3] = Induction of cell cycle arrest in human MOLM16 cells assessed as accumulation at G1 phase at 5 uM incubated for 24 hrs by propidium iodide /RNase staining based flow cytometry(Rvb =46.8 %); type: functional, MOLM-16
[4] = Induction of cell cycle arrest in human MOLM16 cells assessed as accumulation at G2 phase at 1 uM incubated for 24 hrs by propidium iodide /RNase staining based flow cytometry(Rvb =14.7 %); type: functional, MOLM-16
KG-1 = assay: Antiproliferative activity against human KG-1 cells assessed as reduction in cell viability measured after 48 hrs by CCK8 assay; type: functional, cell-based; conditions: KG-1, 48 h
[5] = Induction of cell cycle arrest in human MOLM16 cells assessed as accumulation at subG1 phase at 1 uM incubated for 24 hrs by propidium iodide /RNase staining based flow cytometry(Rvb =4.02 %); type: functional, MOLM-16
[6] = Half life in Sprague-Dawley rat at 2 mg/kg, iv; type: ADME, organism-based; conditions: in vivo
[7] = Induction of cell cycle arrest in human MOLM16 cells assessed as accumulation at subG1 phase at 2 uM incubated for 24 hrs by propidium iodide /RNase staining based flow cytometry(Rvb =4.02 %); type: functional, MOLM-16
[8] = AUC (0 to infinity) in Sprague-Dawley rat at 10 mg/kg, po; type: ADME, organism-based; design: route oral, time infinity, dose 10 mg/kg; conditions: in vivo
[9] = Acute toxicity in ICR mouse assessed as damage in liver at 90 mg/kg, po measured after 7 days by H&E staining based immunohistochemistry; type: organism-based; conditions: in vivo, 168 h, time 7 day
[10] = Induction of cell cycle arrest in human MOLM16 cells assessed as accumulation at G2 phase at 5 uM incubated for 24 hrs by propidium iodide /RNase staining based flow cytometry(Rvb =14.7 %); type: functional, MOLM-16
[11] = Half life in Sprague-Dawley rat at 10 mg/kg, po; type: ADME, organism-based; conditions: in vivo
[12] = Tmax in Sprague-Dawley rat at 10 mg/kg, po; type: ADME, organism-based; conditions: in vivo
[13] = Induction of cell cycle arrest in human MOLM16 cells assessed as accumulation at S phase at 1 uM incubated for 24 hrs by propidium iodide /RNase staining based flow cytometry(Rvb =31.8 %); type: functional, MOLM-16
[14] = Antitumor activity against human MOLM16 cells xenografted in BALB/c mouse assessed as tumor growth inhibition at 40 mg/kg, po administered daily for 14 days; type: functional, MOLM-16; conditions: 336 h, time 14 day, read-out: TGI
[15] = Cmax in Sprague-Dawley rat at 10 mg/kg, po; type: ADME, organism-based; design: route oral, dose 10 mg/kg; conditions: in vivo
[16] = AUC (0 to t) in Sprague-Dawley rat at 10 mg/kg, po; type: ADME, organism-based; design: dose 10 mg/kg; conditions: in vivo
[17] = Acute toxicity in ICR mouse assessed as damage in heart at 90 mg/kg, po measured after 7 days by H&E staining based immunohistochemistry; type: organism-based; conditions: in vivo, 168 h, time 7 day
[18] = Acute toxicity in ICR mouse assessed as damage in lung at 90 mg/kg, po measured after 7 days by H&E staining based immunohistochemistry; type: organism-based; conditions: in vivo, 168 h, time 7 day
[19] = Antitumor activity against human MOLM16 cells xenografted in BALB/c mouse assessed as tumor growth inhibition at 20 mg/kg, po administered daily for 14 days; type: functional, MOLM-16; conditions: 336 h, time 14 day, read-out: TGI
[20] = Antiproliferative activity against human MOLM16 cells assessed as reduction in cell viability measured after 48 hrs by CCK8 assay; type: functional, cell-based, MOLM-16; conditions: MOLM16, 48 h
[21] = Induction of cell cycle arrest in human MOLM16 cells assessed as accumulation at subG1 phase at 5 uM incubated for 24 hrs by propidium iodide /RNase staining based flow cytometry(Rvb =4.02 %); type: functional, MOLM-16
[22] = Antiproliferative activity against p110 unexpressed human MM1.R cells assessed as reduction in cell viability measured after 48 hrs by CCK8 assay; type: functional; conditions: MM.1R
[23] = Volume of distribution in steady state in Sprague-Dawley rat at 2 mg/kg, iv; type: ADME, organism-based; conditions: in vivo
[24] = Induction of apoptosis in human MOLM16 cells assessed as necrotic cells at 2 uM incubated for 48 hrs by Annexin V and propidium iodide Staining based assay (reference value: 0.44 %); type: functional, MOLM-16
[25] = Acute toxicity in ICR mouse assessed as damage in spleen at 90 mg/kg, po measured after 7 days by H&E staining based immunohistochemistry; type: organism-based; conditions: in vivo, 168 h, time 7 day
[26] = MRT (0 to infinity) in Sprague-Dawley rat at 2 mg/kg, iv; type: ADME, organism-based; conditions: in vivo
[27] = Induction of apoptosis in human MOLM16 cells assessed as viable cells at 1 uM incubated for 48 hrs by Annexin V and propidium iodide Staining based assay (reference value: 76.3 %); type: functional, MOLM-16; conditions: read-out: Activity
[28] = Induction of cell cycle arrest in human MOLM16 cells assessed as accumulation at G1 phase at 2 uM incubated for 24 hrs by propidium iodide /RNase staining based flow cytometry(Rvb =46.8 %); type: functional, MOLM-16
[29] = Induction of cell cycle arrest in human MOLM16 cells assessed as accumulation at G1 phase at 1 uM incubated for 24 hrs by propidium iodide /RNase staining based flow cytometry(Rvb =46.8 %); type: functional, MOLM-16
EOL1 = assay: Antiproliferative activity against human EOL1 cells assessed as reduction in cell viability measured after 48 hrs by CCK8 assay; type: functional, cell-based; conditions: EOL1, 48 h
[30] = Induction of cell cycle arrest in human MOLM16 cells assessed as accumulation at S phase at 5 uM incubated for 24 hrs by propidium iodide /RNase staining based flow cytometry(Rvb =31.8 %); type: functional, MOLM-16
[31] = Induction of apoptosis in human MOLM16 cells assessed as viable cells at 2 uM incubated for 48 hrs by Annexin V and propidium iodide Staining based assay (reference value: 76.3 %); type: functional, MOLM-16; conditions: read-out: Activity
[32] = Induction of apoptosis in human MOLM16 cells assessed as late apoptotic cells at 1 uM incubated for 48 hrs by Annexin V and propidium iodide Staining based assay (reference value: 6.77 %); type: functional, MOLM-16
[33] = Induction of apoptosis in human MOLM16 cells assessed as late apoptotic cells at 2 uM incubated for 48 hrs by Annexin V and propidium iodide Staining based assay (reference value: 6.77 %); type: functional, MOLM-16
[34] = Induction of apoptosis in human MOLM16 cells assessed as early apoptotic cells at 2 uM incubated for 48 hrs by Annexin V and propidium iodide Staining based assay (reference value: 16.4 %); type: functional, MOLM-16
[35] = Induction of apoptosis in human MOLM16 cells assessed as necrotic cells at 5 uM incubated for 48 hrs by Annexin V and propidium iodide Staining based assay (reference value: 0.44 %); type: functional, MOLM-16
[36] = Induction of apoptosis in human MOLM16 cells assessed as early apoptotic cells at 1 uM incubated for 48 hrs by Annexin V and propidium iodide Staining based assay (reference value: 16.4 %); type: functional, MOLM-16
[37] = AUC (0 to t) in Sprague-Dawley rat at 2 mg/kg, iv; type: ADME, organism-based; design: dose 2 mg/kg; conditions: in vivo
[38] = Induction of apoptosis in human MOLM16 cells assessed as necrotic cells at 1 uM incubated for 48 hrs by Annexin V and propidium iodide Staining based assay (reference value: 0.44 %); type: functional, MOLM-16
[39] = AUC (0 to infinity) in Sprague-Dawley rat at 2 mg/kg, iv; type: ADME, organism-based; design: time infinity, route intravenous, dose 2 mg/kg; conditions: in vivo
[40] = Induction of apoptosis in human MOLM16 cells assessed as early apoptotic cells at 5 uM incubated for 48 hrs by Annexin V and propidium iodide Staining based assay (reference value: 16.4 %); type: functional, MOLM-16
[41] = Induction of apoptosis in human MOLM16 cells assessed as viable cells at 5 uM incubated for 48 hrs by Annexin V and propidium iodide Staining based assay (reference value: 76.3 %); type: functional, MOLM-16; conditions: read-out: Activity
[42] = Oral bioavailability in Sprague-Dawley rat at 10 mg/kg; type: ADME, organism-based; conditions: in vivo
[43] = Acute toxicity in ICR mouse assessed as damage in kidney at 90 mg/kg, po measured after 7 days by H&E staining based immunohistochemistry; type: organism-based; conditions: in vivo, 168 h, time 7 day
[44] = Toxicity in BALB/c nude mouse xenografted with human MOLM16 cells assessed as change in body weight at 20 to 40 mg/kg, po administered once daily for 14 days; type: organism-based; conditions: in vivo, 336 h, dose 20-40 mg/kg, time 14 day
[45] = Acute toxicity in ICR mouse assessed as behavioral changes at 90 mg/kg, po administered for 7 days and observed for 7 days; type: organism-based; conditions: in vivo, 168 h, time 7 day
[46] = Acute toxicity in ICR mouse assessed as survival at 90 mg/kg, po administered for 7 days and observed for 7 days; type: organism-based; conditions: in vivo, 168 h, time 7 day
[47] = Induction of cell cycle arrest in human MOLM16 cells assessed as accumulation at S phase at 2 uM incubated for 24 hrs by propidium iodide /RNase staining based flow cytometry(Rvb =31.8 %); type: functional, MOLM-16

With `O=S(=O)(Nc1cc(-c2cnc3[nH]ncc3c2)cnc1Cl)c1ccccc1` as the compound, how does the IC50 (HL-60) read?
Its IC50 is 2250 nM.

What about the Activity [1] of the same compound?
The Activity was 42.6%.

And the Activity [2]?
Its Activity is 10.8%.

What about the Activity [3] of the same compound?
The Activity was 49.2%.

What about the Activity [4] of the same compound?
The Activity was 11.8%.

And the IC50 (KG-1)?
Its IC50 is 5820 nM.

And the Activity [5]?
The Activity was 3.5%.

And the half-life [6]?
Its half-life is 7.68 h.

What about the Activity [7] of the same compound?
Its Activity is 3.27%.

What about the AUC(0-inf) [8] of the same compound?
The AUC(0-inf) was 9220 ng·h/mL.

What about the Activity [9] of the same compound?
The Activity was “Non-Toxic”.

And the Activity [10]?
The Activity was 8.07%.

What about the half-life [11] of the same compound?
The half-life was 3.74 h.

What about the Tmax [12] of the same compound?
Its Tmax is 4 h.

What about the Activity [13] of the same compound?
Its Activity is 31.1%.

And the inhibition in vivo at 40 mg/kg [14]?
The inhibition in vivo at 40 mg/kg was 49%.

What about the Cmax [15] of the same compound?
The Cmax was 1100 ng/mL.

What about the AUC(0-t) [16] of the same compound?
The AUC(0-t) was 9040 ng·h/mL.

What about the Activity [17] of the same compound?
The Activity was “Non-Toxic”.

And the Activity [18]?
Its Activity is “Non-Toxic”.

And the inhibition in vivo at 20 mg/kg [19]?
Its inhibition in vivo at 20 mg/kg is 31%.

What about the IC50 [20] of the same compound?
The IC50 was 870 nM.

What about the Activity [21] of the same compound?
The Activity was 11.1%.

And the IC50 [22]?
Its IC50 is 23100 nM.

What about the Vdss [23] of the same compound?
Its Vdss is 2.12 L/kg.

And the Activity [24]?
The Activity was 1.47%.

What about the Activity [25] of the same compound?
Its Activity is “Non-Toxic”.

What about the MRT [26] of the same compound?
The MRT was 3.12 h.

What about the viability at 1 µM [27] of the same compound?
Its viability at 1 µM is 69.8%.

And the Activity [28]?
The Activity was 56.7%.

What about the Activity [29] of the same compound?
The Activity was 54.9%.

And the IC50 (EOL1)?
The IC50 was 2820 nM.

What about the Activity [30] of the same compound?
The Activity was 30.1%.

And the viability at 2 µM [31]?
The viability at 2 µM was 57.8%.

And the Activity [32]?
Its Activity is 13.6%.

And the Activity [33]?
Its Activity is 16.1%.

And the Activity [34]?
Its Activity is 24.6%.

What about the Activity [35] of the same compound?
Its Activity is 0.6%.

And the Activity [36]?
The Activity was 16%.

And the AUC(0-t) [37]?
Its AUC(0-t) is 10200 ng·h/mL.

What about the Activity [38] of the same compound?
The Activity was 1.6%.

What about the AUC(0-inf) [39] of the same compound?
Its AUC(0-inf) is 10500 ng·h/mL.

What about the Activity [40] of the same compound?
Its Activity is 46.1%.

And the viability at 5 µM [41]?
Its viability at 5 µM is 10.7%.

What about the bioavailability [42] of the same compound?
The bioavailability was 17.6%.

And the Activity [43]?
The Activity was “Non-Toxic”.

What about the Activity [44] of the same compound?
The Activity was “Non-Toxic”.

What about the Activity [45] of the same compound?
The Activity was “Non-Toxic”.

And the Activity [46]?
Its Activity is “Non-Toxic”.

What about the Activity [47] of the same compound?
Its Activity is 28.6%.
